Results as given in patent US20070105114A1, “Biomarkers of cyclin-dependent kinase modulation” (priority 2003, published 2007).
pIC50: −log10 of the molar value. Counter-ions that a name gives are not always drawn. Like-named read-outs stand apart in the source and are kept apart here.

How the values were obtained:
[1] = test system: A2780 ovarian carcinoma cells; assay: Clonogenic growth assay (colony formation); format: cell-based, human; details: for pIC50 / IC90: Homo sapiens, A2780, A2780s Clonogenic assay; for pIC50: read-out: IC50, inhibition of colony formation; for IC90: read-out: IC90, inhibition of colony formation
Protocol: Clonogenic Growth Assay: The colony growth inhibition was measured for the A2780 ovarian carcinoma cells using a standard clonogenic assay. In this assay, 200 cells/well were seeded into 6-well tissue culture plates (Falcon™) (Becton, Dickinson and Company, Franklin Lakes, N.J., USA) and allowed to attach for 18 hours. Assay medium consisted of RPMI-1640 plus 10% fetal bovine serum. Cells were then treated in duplicate with a six concentration dose-response curve. The maximum concentration of DMSO never exceeded 0.25%. Cells were exposed to the cdk2 inhibitor for 4, 8, or 24 hours. The cdk2 inhibitor was then removed and the cells were washed with 2 volumes of PBS. The normal growth medium was then replaced. Colonies were fed with fresh media every third day. Colony number was scored on day 10-14 using a Optimax imaging station. The cdk2 inhibitor concentration required to inhibit 50% or 90% of colony formation (IC50 or IC90, respectively) was determined by non-linear regression analysis. The coefficient of variance (standard deviation/mean, n=3)=30%. Treatment of A2780 and PBMC was carried out as described above. The doses of the cdk2 inhibitor were derived from an understanding of the kinetics of tumor cell growth inhibition by the cdk2 inhibitor as assessed by proliferation and clonogenic assays (Table 3). […] A minimal exposure of 8 hours was required for effective inhibition of colony formation. The values obtained from the 24 hour clonogenic assay were in good agreement with the 72 hour proliferation assay.

A2780s = assay: 72 hr XTT proliferation assay; format: cell-based; details: Homo sapiens, 72 hr. XTT assay
Protocol: Treatment of A2780 and PBMC was carried out as described above. The doses of the cdk2 inhibitor were derived from an understanding of the kinetics of tumor cell growth inhibition by the cdk2 inhibitor as assessed by proliferation and clonogenic assays (Table 3). […] A minimal exposure of 8 hours was required for effective inhibition of colony formation. The values obtained from the 24 hour clonogenic assay were in good agreement with the 72 hour proliferation assay.

W28729 [2] = assay: W28729 expression by real-time quantitative PCR in cultured A2780 tumor cells; format: cell-based, human; details: 20 nM
Protocol: Real-Time Quantitative PCR Assays: A Taqman® real-time-PCR fluorogenic assay (Applied Biosystems, Foster City, Calif., USA) was used to quantitate the levels of specific mRNA. The cdk2 inhibitor treated A2780s cells were harvested at approximately 70% confluence and total RNA was prepared using the Qiagen RNeasy 96 Kit.
Taqman® reactions were prepared as follows: 100 ng total RNA; 25 nM-750 nM Forward Primer; 25 nM-750 nM Reverse Primer; 200 nM-400 nM Taqman® Probe (fluorescent dye labeled oligonucleotide primer); 1X Buffer A (Applied Biosystems, Foster City, Calif., USA); 5.5 mM MgCl2; 300 μM DATP, dGTP, dTTP, dCTP; 1 U Amplitaq Gold; 20 U Superscript 2; 1 U RNase Inhibitor. Real-time PCR was performed using an Applied Biosystems 7700 Sequence Detection System. […]
The Sequence Detection System generates a Ct (threshold cycle) value that is used to calculate a concentration for each input messenger RNA template. Messenger RNA levels for each gene or fragment thereof of interest were normalized to GAPDH message levels to compensate for variations in total RNA quantity in the input sample. […] Ct values for the gene or fragments thereof of interest and GAPDH were inserted into the δδCt equation: Relative Quantity of Nucleic Acid Template=2^δδCt=2^(δCta-δCtb)(δCta=Ct target−Ct GAPDH, δCtb=Ct reference−Ct GAPDH) which was used to calculate a normalized relative message level. […]

W28729 [3] = assay: W28729 expression by real-time quantitative PCR in PBMC treated in vitro; format: cell-based; details: human PBMC in vitro, 10n-M, 4 hours
Protocol: Taqman® reactions were prepared as follows: 100 ng total RNA; 25 nM-750 nM Forward Primer; 25 nM-750 nM Reverse Primer; 200 nM-400 nM Taqman® Probe (fluorescent dye labeled oligonucleotide primer); 1X Buffer A (Applied Biosystems, Foster City, Calif., USA); 5.5 mM MgCl2; 300 μM DATP, dGTP, dTTP, dCTP; 1 U Amplitaq Gold; 20 U Superscript 2; 1 U RNase Inhibitor. Real-time PCR was performed using an Applied Biosystems 7700 Sequence Detection System. Conditions were as follows: 48° C. for 20 minutes (reverse transcription), 95° C. for 10 minutes (denaturation and activation of Amplitaq Gold), 40 cycles of PCR (95° C. for 15 seconds, 60° C. for 1 minutes).
The Sequence Detection System generates a Ct (threshold cycle) value that is used to calculate a concentration for each input messenger RNA template. Messenger RNA levels for each gene or fragment thereof of interest were normalized to GAPDH message levels to compensate for variations in total RNA quantity in the input sample. This was done by generating GAPDH Ct values for each cell line. Ct values for the gene or fragments thereof of interest and GAPDH were inserted into the δδCt equation: Relative Quantity of Nucleic Acid Template=2^δδCt=2^(δCta-δCtb)(δCta=Ct target−Ct GAPDH, δCtb=Ct reference−Ct GAPDH) which was used to calculate a normalized relative message level. […]

CC(C)(C)c1cnc(CSc2cnc(NC(=O)C3CCNCC3)s2)o1 [cdk2 inhibitor, N-5-[[5-(1,1-Dimethylethyl)-2-oxazolyl]methyl]thio]-2-thiazolyl-4-piperidinecarboxamide, 0.5-L-tartaric acid salt]
minimal exposure required for effective inhibition of colony formation ([1]; A2780s): 8 h
growth inhibition, dependence on exposure time ([1]; A2780s, proliferation and clonogenic assays): time dependent
pIC50 ([1]; 4 hr. exposure): 6.52
IC90 ([1]; 4 hr. exposure): > 1000 nM
pIC50 ([1]; 8 hr. exposure): 6.81
IC90 ([1]; 8 hr. exposure): 303 nM
pIC50 ([1]; 24 hr. exposure): 6.78
IC90 ([1]; 24 hr. exposure): 208 nM
pIC50 (A2780s): 7.02
IC90 (A2780s): 170 nM
induction of W28729 (W28729 [2]): induction of W28729 occurred
time after treatment at which W28729 induction was detected (W28729 [2]): 1 h
W28729 expression change (W28729 [3]): Upregulation of W28729 expression
